The results in this text go back to PubChem BioAssay AID248 (DTP/NCI, 2004).

This assay has as its system L1210 leukemia ip in BDF1 mice, survival T/C. Description: NCI In Vivo Anticancer Drug Screen. Data for tumor model L1210 Leukemia (intraperitoneal) in B6D2F1 (BDF1) mice. Particulars: endpoint: mean survival time, higher = longer survival. A digest of the protocol:
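Mice bearing the transplanted tumor received compound or vehicle. Survival of the treated group was divided by that of the vehicle-treated control group to give the ratio.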

[1] abbreviates: dose: 200.0 mg/kg/injection, schedule: Q01DX001 (ip), vehicle: saline.
[2] abbreviates: dose: 100.0 mg/kg/injection, schedule: Q04DX002 (ip), vehicle: saline with Tween-80.
[3] abbreviates: dose: 200.0 mg/kg/injection, schedule: Q04DX002 (ip), vehicle: saline with Tween-80.
The mark [4] stands for this setting: dose: 400.0 mg/kg/injection, schedule: Q04DX002 (ip), vehicle: saline with Tween-80.
Where [5] appears, read: dose: 100.0 mg/kg/injection, schedule: Q04DX003 (ip), vehicle: saline with Tween-80.
Where [6] appears, read: dose: 200.0 mg/kg/injection, schedule: Q04DX003 (ip), vehicle: saline with Tween-80.
[7] abbreviates: dose: 400.0 mg/kg/injection, schedule: Q04DX003 (ip), vehicle: saline with Tween-80.
The mark [8] stands for this setting: dose: 100.0 mg/kg/injection, schedule: Q01DX001 (ip), vehicle: Klucel (hydroxypropylcellulose) (HPC).
Where [9] appears, read: dose: 400.0 mg/kg/injection, schedule: Q01DX001 (ip), vehicle: Klucel (hydroxypropylcellulose) (HPC).

“And” between values parts separate entries of the source, which are not always exact repeats. Equal values may be shown once. Inconclusive results and toxic doses are left out.

Take `Clc1ccc2c(c1)Cc1cc(N=Cc3ccccc3Cl)ccc1-2`: the T/C is 97 % of control (dose: 12.5 mg/kg/injection, schedule: Q01DX001 (ip), vehicle: saline); 92 % of control (dose: 12.5 mg/kg/injection, schedule: Q04DX003 (ip), vehicle: saline); 87 % of control (dose: 25.0 mg/kg/injection, schedule: Q01DX001 (ip), vehicle: saline); 93 % of control (dose: 25.0 mg/kg/injection, schedule: Q04DX003 (ip), vehicle: saline); 106 % of control (dose: 50.0 mg/kg/injection, schedule: Q01DX001 (ip), vehicle: saline); 87 % of control (dose: 50.0 mg/kg/injection, schedule: Q04DX003 (ip), vehicle: saline). Also, the T/C (dose: 65.0 mg/kg/injection, schedule: Q01DX Z (ip), vehicle: carboxymethylcellulose (CMC)) was 90 % of control; the T/C (dose: 75.0 mg/kg/injection, schedule: Q04DX003 (ip), vehicle: saline) was 101 % of control; the T/C (dose: 115.0 mg/kg/injection, schedule: Q04DX003 (ip), vehicle: saline) was 89 % of control; the T/C (dose: 125.0 mg/kg/injection, schedule: Q01DX Z (ip), vehicle: carboxymethylcellulose (CMC)) is 96 % of control; the T/C (dose: 170.0 mg/kg/injection, schedule: Q04DX003 (ip), vehicle: saline) is 103 % of control; the T/C under setting [1] is 89 % of control. In addition, the T/C (dose: 250.0 mg/kg/injection, schedule: Q01DX Z (ip), vehicle: carboxymethylcellulose (CMC)) was 102 % of control and the T/C (dose: 500.0 mg/kg/injection, schedule: Q01DX Z (ip), vehicle: carboxymethylcellulose (CMC)) was 102 % of control.

Consider `O=C1OC(/C=C/c2ccccc2)=NC/1=C\c1ccc2c(c1)OCO2`, for which the T/C runs as follows: under setting [2], 92 % of control; under setting [3], 89 % of control; under setting [4], 92 % of control.

Turning to `COc1cc(NC(=O)CC(C)=O)c(OC)cc1Cl`, the T/C by setting is: under setting [5], 100 % of control; under setting [6], 102 % of control; under setting [7], 102 % of control.

Consider `Cc1cccc(CSc2nc(N)nc3c2ncn3C2CC(O)C(CO)O2)n1` (stereo not given), for which the T/C was 104 % of control (dose: 100.0 mg/kg/injection, schedule: Q01DX005 (ip), vehicle: saline); 113 % of control (dose: 100.0 mg/kg/injection, schedule: Q01DX009 (ip), vehicle: saline); 107 % of control (dose: 200.0 mg/kg/injection, schedule: Q01DX005 (ip), vehicle: saline); 153 % of control (dose: 600.0 mg/kg/injection, schedule: Q01DX009 (ip), vehicle: saline).

For `CNC(C#N)Cc1ccccc1` (stereo not given), the T/C reads like this: (dose: 2.5 mg/kg/injection, schedule: Q01DX009 (ip), vehicle: saline) 96 % of control; (dose: 5.0 mg/kg/injection, schedule: Q01DX009 (ip), vehicle: saline) 98 % of control; (dose: 10.0 mg/kg/injection, schedule: Q01DX009 (ip), vehicle: saline) 104 % of control; (dose: 20.0 mg/kg/injection, schedule: Q01DX009 (ip), vehicle: saline) 101 % of control.

As for `CCCCCCCCCCCCOc1ccc(C(=O)O)cc1`, the T/C is 100 % of control (dose: 50.0 mg/kg/injection, schedule: Q01DX001 (ip), vehicle: other); 100 % of control (dose: 100.0 mg/kg/injection, schedule: Q01DX001 (ip), vehicle: other); 93 % of control (dose: 200.0 mg/kg/injection, schedule: Q01DX001 (ip), vehicle: other); 93 % of control (dose: 400.0 mg/kg/injection, schedule: Q01DX001 (ip), vehicle: other).

With `CC(=O)NC1CCC(C(F)(F)F)CC1` (stereo not given), the T/C under setting [8] was 93 % of control and 96 % of control; the T/C (dose: 200.0 mg/kg/injection, schedule: Q01DX001 (ip), vehicle: Klucel (hydroxypropylcellulose) (HPC)) is 95 % of control and 98 % of control; the T/C under setting [9] is 106 % of control and 98 % of control.

Take `CN(C)C(=O)Nc1ccc(C#N)cc1`: the T/C is 89 % of control (dose: 100.0 mg/kg/injection, schedule: Q04DX002 (ip), vehicle: Klucel (hydroxypropylcellulose) (HPC)); 103 % of control (dose: 200.0 mg/kg/injection, schedule: Q04DX002 (ip), vehicle: Klucel (hydroxypropylcellulose) (HPC)); 106 % of control (dose: 400.0 mg/kg/injection, schedule: Q04DX002 (ip), vehicle: Klucel (hydroxypropylcellulose) (HPC)).

With `CC1CC(C)(C)N/C(=C/C(=O)N2Cc3cc4ccccc4nc3C2)O1` (stereo not given), the T/C was 86 % of control under setting [8] and 88 % of control under setting [9].

As to `CCC1C(=O)CC(C(=O)O)C1C(=O)O` (stereo not given), the T/C was 100 % of control under setting [2] and 96 % of control under setting [3].

As for `CCCCNc1nc(N)nc2c1nnn2C1OC(CO)C(O)C1O` (stereo not given), the T/C by setting is: (dose: 100.0 mg/kg/injection, schedule: Q01DX001 (ip), vehicle: saline) 107 % of control; under setting [1], 101 % of control; (dose: 400.0 mg/kg/injection, schedule: Q01DX001 (ip), vehicle: saline) 107 % of control.

On to `CN(C)S(=O)(=O)Oc1ccc(S(=O)(=O)F)cc1Cl`, for which the T/C is, setting by setting: (dose: 100.0 mg/kg/injection, schedule: Q04DX002 (ip), vehicle: saline) 112 % of control; (dose: 200.0 mg/kg/injection, schedule: Q04DX002 (ip), vehicle: saline) 104 % of control; (dose: 400.0 mg/kg/injection, schedule: Q04DX002 (ip), vehicle: saline) 112 % of control.

`O=C(Nc1cccc(F)c1)N(C1CCCCC1)C1CCCCC1`: the T/C is 96 % of control (dose: 6.25 mg/kg/injection, schedule: Q01DX009 (ip), vehicle: gum acacia); 100 % of control (dose: 12.5 mg/kg/injection, schedule: Q01DX009 (ip), vehicle: gum acacia); 89 % of control (dose: 50.0 mg/kg/injection, schedule: Q01DX009 (ip), vehicle: gum acacia); 91 % of control (dose: 400.0 mg/kg/injection, schedule: Q01DX009 (ip), vehicle: gum acacia).

Turning to `O=C(N/N=C/c1ccc2c(c1)OCO2)c1ccccc1`, the T/C is 93 % of control (dose: 100.0 mg/kg/injection, schedule: Q01DX009 (ip), vehicle: Klucel (hydroxypropylcellulose) (HPC)); 101 % of control (dose: 100.0 mg/kg/injection, schedule: Q04DX003 (ip), vehicle: Klucel (hydroxypropylcellulose) (HPC)); 96 % of control (dose: 200.0 mg/kg/injection, schedule: Q01DX009 (ip), vehicle: Klucel (hydroxypropylcellulose) (HPC)); 104 % of control (dose: 200.0 mg/kg/injection, schedule: Q04DX003 (ip), vehicle: Klucel (hydroxypropylcellulose) (HPC)); 86 % of control (dose: 400.0 mg/kg/injection, schedule: Q01DX009 (ip), vehicle: Klucel (hydroxypropylcellulose) (HPC)); 98 % of control (dose: 400.0 mg/kg/injection, schedule: Q04DX003 (ip), vehicle: Klucel (hydroxypropylcellulose) (HPC)).

For the compound `O=C(Nc1ccc(Cl)cc1[N+](=O)[O-])Oc1ccccc1C(=O)Nc1ccccc1`, the T/C (dose: 100.0 mg/kg/injection, schedule: Q01DX009 (ip), vehicle: saline with Tween-80) was 92 % of control; the T/C under setting [2] was 93 % of control and 95 % of control; the T/C under setting [5] was 97 % of control; the T/C (dose: 200.0 mg/kg/injection, schedule: Q01DX009 (ip), vehicle: saline with Tween-80) is 91 % of control; the T/C under setting [3] was 98 % of control and 88 % of control; the T/C under setting [6] is 95 % of control. Besides, the T/C by setting is: (dose: 400.0 mg/kg/injection, schedule: Q01DX009 (ip), vehicle: saline with Tween-80) 89 % of control and 92 % of control; under setting [4], 97 % of control and 91 % of control; under setting [7], 93 % of control.

Take `CCn1nnnc1N`: the T/C is 91 % of control (dose: 100.0 mg/kg/injection, schedule: Q04DX003 (ip), vehicle: saline); 94 % of control (dose: 200.0 mg/kg/injection, schedule: Q04DX003 (ip), vehicle: saline); 102 % of control (dose: 400.0 mg/kg/injection, schedule: Q04DX003 (ip), vehicle: saline).
